From patent US8921372B2, “Inhibitors of hepatitis C virus” (Theravance Biopharma R&D IP, LLC, priority 2010, dated 2014)
Like-named read-outs stand apart in the source and are kept apart here.

How the values were obtained:
[1] = test system: HCV genotype 1b replicon cell line (APC144; Huh7 cell background); assay: HCV Genotype 1b Replicon Assay (Renilla luciferase readout); type: cell-based; details: Hepatitis C virus, Huh-7; read-out: Genotype 1b (pEC50 class, HCV genotype 1b replicon assay) (converted)
From the text: Assay 1: HCV Genotype 1b Replicon Assay
The HCV genotype 1b replicon cell line was obtained from Apath LLC (Brooklyn, N.Y.) (APC144; Huh7 cell background). This subgenomic replicon contains the N-terminus of the HCV core protein fused to the neomycin-resistance selectable marker. The EMCV IRES lies downstream and drives expression of humanized Renilla luciferase fused to the non-structural proteins NS3-NS5B. This cell line was used to determine compound potency using the luciferase activity readout as a measurement of compound inhibition of replicon levels.
(§1) Cells were grown at 37° C. in a 5% CO2 humidified incubator in DMEM (Invitrogen) with 10% FBS (HyClone), 1×NEAA (Invitrogen), 1× Pen-Strep (Invitrogen), and 500 μg/mL G418 (Invitrogen). On day 1 of the assay, cells were plated at 10,000 cells/well in white 96-well tissue culture plates (Costar) in 200 μL media lacking G418. Four hours later, once the cells have adhered, the media was removed and replaced with media (no G418) containing dose-responses of test compounds. Compounds were initially diluted in DMSO and then diluted another 200× in media to bring the final DMSO concentration down to 0.5%. The cells were incubated with test compounds for 48 hours. At the end of the incubation period, media and compound were removed from the plates and the luciferase activity was determined using Promega Renilla-Glo reagents.
To analyze the data, the luciferase activity was plotted vs. the compound concentration, and EC50 values were determined from a 4-parameter robust fit model with the GraphPad Prism software package (GraphPad Software, Inc., San Diego, Calif.). Results are expressed as the negative decadic logarithm of the EC50 value, pEC50.
Test compounds having a higher pEC50 value in this assay show greater inhibition of HCV genotype 1b replication.

[2] = test system: HCV genotype 1a replicon cell line (APC89; Huh7.5 cell background); assay: HCV Genotype 1a Replicon Assay (NS3-specific protease activity readout); type: cell-based; details: Hepatitis C virus
Description: Assay 2: HCV Genotype 1a Replicon Assay
The HCV genotype 1a replicon cell line was obtained from Apath LLC (APC89; Huh7.5 cell background). This subgenomic replicon contains the N-terminus of the HCV core protein fused to the neomycin-resistance selectable marker. The EMCV IRES lies downstream and drives expression of the non-structural proteins NS3-NS5B. Compound potencies were determined using the NS3-specific protease activity in lysates as a measurement of compound inhibition of replicon levels.
as §1, with “850” for “500”, “15,000” for “10,000”, “black” for “white”, “had” for “have”, “48 or 72” for “48”, “plates.” for “plates and the luciferase activity was determined using Promega Renilla-Glo reagents.”
To determine the NS3-specific protease activity in lysates, the cells were lysed at room temperature in 50 μL/well of 50 mM Hepes pH 7.5, 150 mM NaCl, 15% Glycerol, 0.15% Triton X-100, 10 mM DTT for 20 minutes with shaking. 50 μL of an NS3/4a protease-specific FRET substrate (Anaspec RET S1 Cat#22991) was then added to the wells at a final concentration of 15 μM. The plates were incubated at 37° C. for 20 minutes, which corresponds to a timepoint at which the protease activity is still in the linear phase. Protease activity was determined by measuring fluorescence (Excitation: 340 nm; Emission: 509 nm).
To analyze the data, the fluorescence was plotted vs. the compound concentration, and EC50 values were determined from a 4-parameter robust fit model using GraphPad Prism software.

[3] = 72 hour incubation, read-out: Genotype 1a (pEC50 class, HCV genotype 1a replicon assay) (converted)
[4] = compounds incubated for 48 hours, read-out: Genotype 1a (pEC50 class, HCV genotype 1a replicon assay), * results (converted)

Compound	EC50 [1]	EC50 [2, 3]	EC50 [2, 4]
COC(=O)N[C@H](C(=O)N1CCC[C@H]1c1nc(-c2ccc(-c3ccc(NC(=O)c4ccc(N5CCN(C(=O)C6CC6)CC5)cc4)cc3)cc2)c[nH]1)C(C)C [Example 1, {(S)-1-[(S)-2-(4-{4′-[4-(4-cyclopropanecarbonyl-piperazin-1-yl)-benzoylamino]-biphenyl-4-yl}-1H-imidazol-2-yl)-pyrrolidine-1-carbonyl]-2-methyl-propyl}-carbamic acid methyl ester]	< 0.1 nM	1 to 10 nM	–
COC(=O)N[C@H](C(=O)N1CCC[C@H]1c1nc(-c2ccc(-c3ccc(NC(=O)c4ccc(N5CCN(C(=O)C(C)(C)C)CC5)cc4)cc3)cc2)c[nH]1)C(C)C [Example 2, ((S)-1-{(S)-2-[4-(4′-{4-[4-(2,2-Dimethyl-propionyl)-piperazin-1-yl]-benzoylamino}-biphenyl-4-yl)-1H-imidazol-2-yl]-pyrrolidine-1-carbonyl}-2-methyl-propyl)-carbamic acid methyl ester]	< 0.1 nM	–	1 to 10 nM
COC(=O)N[C@H](C(=O)N1CCC[C@H]1c1nc(-c2ccc(-c3ccc(NC(=O)c4ccc(N5CCN(C(=O)OC(C)(C)C)CC5)cc4)cc3)cc2)c[nH]1)C(C)C [Example 3, 4-[4-(4′-{2-[(S)-1-((S)-2-Methoxycarbonylamino-3-methyl-butyryl)-pyrrolidin-2-yl]-1H-imidazol-4-yl}-biphenyl-4-ylcarbamoyl)-phenyl]-piperazine-1-carboxylic acid tert-butyl ester]	< 0.1 nM	–	1 to 10 nM
COC(=O)N[C@H](C(=O)N1CCC[C@H]1c1nc(-c2ccc(-c3ccc(NC(=O)c4ccc(N5CCN(S(C)(=O)=O)CC5)cc4)cc3)cc2)c[nH]1)C(C)C [Example 4, {(S)-1-[(S)-2-(4-{4′-[4-(4-Methanesulfonyl-piperazin-1-yl)-benzoylamino]-biphenyl-4-yl}-1H-imidazol-2-yl)-pyrrolidine-1-carbonyl]-2-methyl-propyl}-carbamic acid methyl ester]	< 0.1 nM	–	10 to 100 nM
COC(=O)N[C@H](C(=O)N1CCC[C@H]1c1nc(-c2ccc(-c3ccc(NC(=O)c4ccc(N5CCN(C(=O)C6CC6)CC5)nc4)cc3)cc2)c[nH]1)C(C)C [Example 5, ((S)-1-{(S)-2-[4-(4′-{[6-(4-Cyclopropanecarbonyl-piperazin-1-yl)-pyridine-3-carbonyl]-amino}-biphenyl-4-yl)-1H-imidazol-2-yl]-pyrrolidine-1-carbonyl}-2-methyl-propyl)-carbamic acid methyl ester]	< 0.1 nM	1 to 10 nM	–
COC(=O)N[C@H](C(=O)N1CCC[C@H]1c1nc(-c2ccc(-c3ccc(C(=O)Nc4ccc(N5CCN(C(=O)OC(C)(C)C)CC5)cc4)cc3)cc2)c[nH]1)C(C)C [Example 6, 4-{4-[(4′-{2-[(S)-1-((S)-2-Methoxycarbonylamino-3-methyl-butyryl)-pyrrolidin-2-yl]-1H-imidazol-4-yl}-biphenyl-4-carbonyl)-amino]-phenyl}-piperazine-1-carboxylic acid tert-butyl ester]	< 0.1 nM	–	10 to 100 nM
COC(=O)N[C@H](C(=O)N1CCC[C@H]1c1nc(-c2ccc(-c3ccc(C(=O)Nc4ccc(N5CCN(C(=O)C6CC6)CC5)cc4)cc3)cc2)c[nH]1)C(C)C [Example 7, {(S)-1-[(S)-2-(4-{4′-[4-(4-cyclopropanecarbonyl-piperazin-1-yl)-phenylcarbamoyl]-biphenyl-4-yl}-1H-imidazol-2-yl)-pyrrolidine-1-carbonyl]-2-methyl-propyl}-carbamic acid methyl ester]	< 0.1 nM	–	1 to 10 nM
COC(=O)N[C@H](C(=O)N1CCC[C@H]1c1nc(-c2ccc(-c3ccc(NC(=O)c4ccc(N5CCN(C(=O)C6CC6)CC5)cc4)cc3F)cc2)c[nH]1)C(C)C [Example 8, {(S)-1-[(S)-2-(4-{4′-[4-(4-cycloproanecarbonyl-piperazin-1-yl)-benzoylamino]-2′-fluoro-biphenyl-4-yl}-1H-imidazol-2-yl)-pyrrolidine-1-carbonyl]-2-methyl-propyl}-carbamic acid methyl ester]	< 0.1 nM	1 to 10 nM	–
CCN(CC)[C@@H](C(=O)N1CCC[C@H]1c1nc(-c2ccc(-c3ccc(NC(=O)c4ccc(N5CCN(C(=O)C6CC6)CC5)cc4)cc3)cc2)c[nH]1)c1ccccc1 [Example 9, 4-(4-Cyclopropanecarbonyl-piperazin-1-yl)-N-(4′-{2-[(S)-1-((R)-2-diethylamino-2-phenyl-acetyl)-pyrrolidin-2-yl]-1H-imidazol-4-yl}-biphenyl-4-yl)-benzamide]	< 0.1 nM	–	0.1 to 1 nM
CNC(=O)C1CCC[C@@]1(C)C(=O)N1C[C@@H](C)N(c2ccc(C(=O)Nc3cc(OC(F)(F)F)c(-c4ccc(-c5c[nH]c([C@@H]6CCCN6C(=O)[C@@H](NC(=O)OC)C(C)C)n5)cc4)cc3Cl)cn2)C[C@@H]1C (some centres unmarked) [Example 28-42]	–	< 0.1 nM	–
COCCNC(=O)N1CCC[C@@]1(C)C(=O)N1C[C@@H](C)N(c2ccc(C(=O)Nc3cc(OC(F)(F)F)c(-c4ccc(-c5c[nH]c([C@@H]6CCCN6C(=O)[C@@H](NC(=O)OC)C(C)C)n5)cc4)cc3Cl)cn2)C[C@@H]1C [Example 28-43]	–	< 0.1 nM	–
COC(=O)N[C@H](C(=O)N1CCC[C@H]1c1nc(-c2ccc(-c3ccc(C(=O)Nc4ccc(N5CCN(C(=O)[C@]6(C)CCCN6C(=O)[C@@H](NC(=O)OC)C(C)O)C[C@H]5C)nc4)cc3OC(F)(F)F)cc2)c[nH]1)C(C)C (some centres unmarked) [Example 67]	–	0.1 to 1 nM	–
COC(=O)N[C@H](C(=O)N1CCC[C@H]1c1nc(-c2ccc(-c3ccc(C(=O)Nc4ccc(N5CCN(C(=O)[C@]6(C)CCCN6C(=O)[C@@H](NC(=O)OC)C(C)(C)C)C[C@H]5C)nc4)cc3OC(F)(F)F)cc2)c[nH]1)C(C)C [Example 70]	–	0.1 to 1 nM	–
COC(=O)N[C@H](C(=O)N1CCC[C@H]1c1nc(-c2ccc(-c3ccc(NC(=O)c4ccc(N5C[C@H](C)N(C(=O)C6CC6)C[C@H]5C)nc4)c(C)n3)cc2)c[nH]1)C(C)C [Example 73]	–	1 to 10 nM	–
CNC(=O)N1C[C@@H](C)N(c2ccc(C(=O)Nc3ccc(-c4ccc(-c5c[nH]c([C@@H]6CCCN6C(=O)[C@@H](NC(=O)OC)C(C)C)n5)cc4)nc3C)cn2)C[C@@H]1C [Example 74]	–	1 to 10 nM	–
COC(=O)N[C@H](C(=O)N1CCC[C@H]1c1nc(-c2ccc(-c3ccc(NC(=O)c4ccc(N5C[C@H](C)N(C(=O)c6c[nH]cn6)C[C@H]5C)nc4)c(C)n3)cc2)c[nH]1)C(C)C [Example 75]	–	1 to 10 nM	–
COC(=O)N[C@H](C(=O)N1CCC[C@H]1c1nc(-c2ccc(-c3ccc(NC(=O)c4ccc(N5CCN(C(=O)[C@H]6CC6(C)C)C[C@H]5C)nc4)cc3OC(F)(F)F)nc2)c[nH]1)C(C)C [Example 76, {(S)-1-[(S)-2-(4-{6-[4-({6-[(R)-4-((S)-2,2-Dimethyl-cyclopropanecarbonyl)-2-methyl-piperazin-1-yl]-pyridine-3-carbonyl}-amino)-trifluoromethoxyphenyl]-pyridin-3-yl}-1H-imidazol-2-yl)-pyrrolidine-1-carbonyl]-2-methyl-propyl}-carbamic acid methyl ester]	–	0.1 to 1 nM	–
